Data reported in patent US20210128528A1, “USE OF 5HT2A INVERSE AGONISTS FOR TREATING PSYCHOSIS” (Axovant Sciences GmbH, priority 2017, published 2021).

Tests used:
C57Bl/6J male mice [1] = assay: PCP-induced hyperlocomotion in open field activity monitors; type: in vivo; settings: Mus musculus
Procedure: PCP-induced hyperlocomotion was measured in open field activity monitor chambers. […] All studies were performed in a blinded and randomized manner and potencies were calculated. Clozapine was used as the basis for comparison.
The data depicted in FIGS. 2-5, summarizes Mouse data—Male C57BL6J mice from JAX ˜12 weeks old. Studies were randomized and investigator was blinded. The figures contain three ways of analyzing the data obtained from the Versamax open field activity monitors on the same cohort of mice. The infrared beams in the chambers measure breaks in X, Y, and Z planes. Typically data are reported for Horizontal beam breaks and sometimes for distance travelled and stereotypy in studies involving PCP.
Male C57BL6 mice from JAX were used at 12-15 weeks of age, n=6 for all conditions). All mice were naïve at the time of testing. […] Mice were then treated with 0.9% saline (i.p.) or PCP (10 mg/kg, i.p.) and monitored for an additional 60 minutes. All measurements were recorded by VersaMax software, and experimenter was blinded to treatment. The summary figure is a compilation of distance travelled over the last 60 minutes with drug treatment. […] Data analyzed via two-way ANOVA followed by Sidak post hoc test to assess statistical differences between animals which received saline of PCP following nelotanserin, clozapine, or vehicle.
Male C57BL6 mice from JAX were used at 12-15 weeks of age, n=6 for all conditions). All mice were naïve at the time of testing. […] Mice were then treated with 0.9% saline (i.p.) or PCP (10 mg/kg, i.p.) and monitored for an additional 60 minutes. All measurements were recorded by VersaMax software, and experimenter was blinded to treatment. The summary figure is a compilation of the sum of beam breaks (X, Y plane) monitored over the last 60 minutes. […] Data analyzed via two-way ANOVA followed by Sidak post hoc test to assess statistical differences between animals which received saline of PCP following nelotanserin, clozapine, or vehicle.
Male C57BL6 mice from JAX were used at 12-15 weeks of age, n=6 for all conditions). All mice were naïve at the time of testing. […] Mice were then treated with 0.9% saline (i.p.) or PCP (10 mg/kg, i.p.) and monitored for an additional 60 minutes. All measurements were recorded by VersaMax software, and experimenter was blinded to treatment. The summary figure is a compilation of the sum of beam breaks (X, Y, Z stereotypy measures) monitored over the last 60 minutes. […] Data analyzed via two-way ANOVA followed by Sidak post hoc test to assess statistical differences between animals which received saline of PCP following nelotanserin, clozapine, or vehicle.

[2] = test system: panel of 66 receptors and ion channels; assay: panel of 66 receptors and ion channels
[3] = target: T1, 5HT2A receptor (h5HT2A-Dx-U2OS cells) (Homo sapiens, UniProt P28223); assay: cell-based
T1 construct: beta-galactosidase enzyme fragment for complementation (the print says only EFC; from my own knowledge of PathHunter it is the ProLink tag on the receptor's C-terminus); host or cells: U2OS (h5HT2A-Dx-U2OS)
T1 sequence (P28223 whole entry, the tested form may be a part): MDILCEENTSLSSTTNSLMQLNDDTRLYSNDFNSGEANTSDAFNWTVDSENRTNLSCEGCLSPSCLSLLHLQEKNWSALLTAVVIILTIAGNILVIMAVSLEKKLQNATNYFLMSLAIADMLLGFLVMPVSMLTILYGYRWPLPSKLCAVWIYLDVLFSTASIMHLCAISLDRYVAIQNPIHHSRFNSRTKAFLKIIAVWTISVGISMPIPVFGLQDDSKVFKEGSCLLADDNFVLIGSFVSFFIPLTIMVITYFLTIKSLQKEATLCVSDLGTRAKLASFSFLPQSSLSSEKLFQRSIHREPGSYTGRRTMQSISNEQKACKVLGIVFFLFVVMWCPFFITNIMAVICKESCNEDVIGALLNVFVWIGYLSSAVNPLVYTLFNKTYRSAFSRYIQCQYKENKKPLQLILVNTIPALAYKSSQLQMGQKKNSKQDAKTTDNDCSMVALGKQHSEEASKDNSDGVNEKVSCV
Procedure: Cells were incubated with nelotanserin or clozapine for 90 minutes at 37° C. followed by addition of DiscoverX detection reagent for 60 minutes, after which luminescence was measured.
Drug treatment was performed for 90 minutes at 37 degrees Celsius followed by addition of DiscoverX detection reagent for 60 minutes at room temperature, after which luminescence was measured.
Cells were incubated with nelotanserin or clozapine for 90 minutes at 37° C. followed by addition of DiscoveRx detection reagent for 60 minutes, after which luminescence was measured.

C57Bl/6J male mice [4] = assay: DOI-induced head twitch response in mice; type: in vivo; settings: Mus musculus
[5] = test system: serotonin-induced intracellular calcium release; assay: serotonin-induced intracellular calcium release assay; type: cell-based; settings: FIG. 6
5HT2C = target: T2, 5HT2C (Homo sapiens, UniProt P28335); assay: selectivity of 5HT2A inverse agonist over 5HT2C; settings: 5HT2A over 5HT2C
T2 sequence (P28335 33-458): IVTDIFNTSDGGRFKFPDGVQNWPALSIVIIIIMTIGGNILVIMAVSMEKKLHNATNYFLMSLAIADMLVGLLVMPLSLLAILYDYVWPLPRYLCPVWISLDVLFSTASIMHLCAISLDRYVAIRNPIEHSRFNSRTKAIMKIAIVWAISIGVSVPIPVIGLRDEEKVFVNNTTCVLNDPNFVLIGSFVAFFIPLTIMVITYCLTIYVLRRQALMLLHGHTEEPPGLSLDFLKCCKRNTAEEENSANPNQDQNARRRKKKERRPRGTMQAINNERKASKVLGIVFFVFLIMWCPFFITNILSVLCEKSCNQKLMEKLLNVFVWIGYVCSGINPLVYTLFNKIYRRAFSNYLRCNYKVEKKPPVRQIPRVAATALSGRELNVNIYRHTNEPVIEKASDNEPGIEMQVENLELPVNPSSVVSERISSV

[6] = compound alone, βarrestin2 recruitment

| activity in a panel of 66 receptors and ion channels [2] | EC50 [3] [nM] | % Max of 5HT [3, 6] [%] | Fold [3, 6] [Fold] | IC50 ([3]; serotonin-induced, h5HT2A-Dx-U2OS cells, 90 minutes at 37° C., read-out: IC50 (SEM), antagonist of the recruitment of β-arrestin 2 to the 5HT2A receptor) [nM] | selectivity over 5HT2C (5HT2C) [fold] | SMILES | ED50 (C57Bl/6J male mice [1]; ip, 1 h, beam breaks X, Y, Z, nelotanserin 1-10 mg/kg i.p., PCP 10 mg/kg i.p., last 60 minutes, read-out: ED 50 (95% confidence limits), stereotypy counts of FIG. 4) [mg/kg] | ED50 (C57Bl/6J male mice [1]; ip, 1 h, horizontal beam breaks (X, Y plane), nelotanserin 1-10 mg/kg i.p., PCP 10 mg/kg i.p., last 60 minutes, read-out: ED 50 (95% confidence limits), beam breaks data of FIG. 3) [mg/kg] | ED50 (C57Bl/6J male mice [1]; ip, 1 h, nelotanserin 1-10 mg/kg i.p., PCP 10 mg/kg i.p., last 60 minutes, read-out: ED 50 (95% confidence limits), total distance traveled data of FIG. 2) [mg/kg] | ED50 (C57Bl/6J male mice [1]; i.p., 30 minutes before PCP 10 mg/kg i.p., read-out: ED50 (95% CL), inhibition of PCP-induced hyperlocomotor activity) [mg/kg] | ED50 (C57Bl/6J male mice [4]; read-out: ED50 (95% CL), block of DOI-induced head twitches) [mg/kg] | ED50 (C57Bl/6J male mice [4]; read-out: ED 50 (95% confidence limits), DOI-induced head twitch of FIG. 5) [mg/kg] | serotonin-induced intracellular calcium release [5] | potency relative to pimavanserin or clozapine, intracellular calcium release ([5]; serotonin-induced) |
| --- | --- | --- | --- | --- | --- | --- | --- | --- | --- | --- | --- | --- | --- | --- |
| inactive | 3.74 | −2.21 | 0.90 | 3.74 | 80 | COc1ccc(NC(=O)Nc2ccc(F)cc2F)cc1-c1c(Br)cnn1C [Nelotanserin, nelotanserin] | 3.8 | 4.3 | 3 | 3 | 2.4 | 2.4 | inhibited | about 2 fold |
|  |  | 98.20 |  |  |  | NCCc1c[nH]c2ccc(O)cc12 [Compound 5HT, serotonin, reference compound] |  |  |  |  |  |  |  |  |
